Source: ChEMBL document CHEMBL3885881, “DrugMatrix”

Species: Rattus norvegicus
Test: DrugMatrix - Regimen: Daily Repeat
Assay type: toxicity, organism-based, Sprague-Dawley
Parameters: regimen Daily Repeat, gender Male, age 6-8 weeks
Conditions: in vivo, po, route oral GAVAGE, […]; for ABSOLUTE BASOPHIL / BASOPHIL / ABSOLUTE EOSINOPHIL / ABSOLUTE LYMPHOCYTE / ABSOLUTE MONOCYTE / ABSOLUTE SEGMENTED NEUTROPHIL / EOSINOPHIL / ERYTHROCYTE COUNT / HEMATOCRIT / HEMOGLOBIN / LEUKOCYTE COUNT / LYMPHOCYTE / MEAN CORPUSCULAR HEMOGLOBIN / MEAN CORPUSCULAR HEMOGLOBIN CONCENTRATION / MEAN CORPUSCULAR VOLUME / MONOCYTE / NEUTROPHIL / NUCLEATED RED BLOOD CELLS / PLATELET COUNT: tissue Blood; for ALANINE AMINOTRANSFERASE / ALKALINE PHOSPHATASE / ASPARTATE AMINOTRANSFERASE / BLOOD UREA NITROGEN / CARBON DIOXIDE / CHLORIDE / CHOLESTEROL / CREATINE PHOSPHOKINASE / CREATININE / GLUCOSE / LACTATE DEHYDROGENASE / LIPASE / PHOSPHORUS / POTASSIUM / SODIUM / TOTAL BILIRUBIN: tissue Plasma
[1] = 0 mg/kg, 72 h, dose level Control, time 3 day
[2] = 0 mg/kg, 120 h, dose level Control, time 5 day
[3] = 0.3 mg/kg, 72 h, dose level Low, time 3 day
[4] = 0.3 mg/kg, 120 h, dose level Low, time 5 day
[5] = 27 mg/kg, 72 h, dose level M1, time 3 day
[6] = 54 mg/kg, 72 h, dose level High, time 3 day

In the case of `CN(Cc1cnc2nc(N)nc(N)c2n1)c1ccc(C(=O)N[C@@H](CCC(=O)O)C(=O)O)cc1` [METHOTREXATE], the “ABSOLUTE BASOPHIL” value [1] is reported as 0 CELLS/uL, the BASOPHIL [1] is reported as 0% and the “ABSOLUTE BASOPHIL” value [2] is reported as 0 CELLS/uL. For the same compound, the “ABSOLUTE EOSINOPHIL” value [2] was 331.5 CELLS/uL, the BASOPHIL [2] was 0% and the “ABSOLUTE BASOPHIL” value [3] was 0 CELLS/uL. For the same compound, the “ABSOLUTE EOSINOPHIL” value [3] was 94 CELLS/uL, the “ABSOLUTE LYMPHOCYTE” value [3] was 7221.33 CELLS/uL and the “ABSOLUTE MONOCYTE” value [3] was 172.67 CELLS/uL. For the same compound, the “ABSOLUTE SEGMENTED NEUTROPHIL” value [3] was 2345.33 CELLS/uL, the BASOPHIL [3] was 0% and the EOSINOPHIL [3] was 0.67%. The “ERYTHROCYTE COUNT” value [3] was 5.78 x10E6/uL, the HEMATOCRIT [3] was 37.2% and the HEMOGLOBIN [3] was 14.3 G/DL. The “LEUKOCYTE COUNT” value [3] was 9.83 x10E3/uL, the LYMPHOCYTE [3] was 70% and the “MEAN CORPUSCULAR HEMOGLOBIN” value [3] was 24.77 pg. The “MEAN CORPUSCULAR HEMOGLOBIN CONCENTRATION” value [3] was 38.47 G/DL, the “MEAN CORPUSCULAR VOLUME” value [3] was 64.33 fL and the MONOCYTE [3] was 1.67%. The NEUTROPHIL [3] was 27.67%, the “NUCLEATED RED BLOOD CELLS” value [3] was 0 /100WBC and the “PLATELET COUNT” value [3] was 997.67 x10E3/uL. The “ALANINE AMINOTRANSFERASE” value [3] was 69 u/L, the “ALKALINE PHOSPHATASE” value [3] was 597.33 u/L and the “ASPARTATE AMINOTRANSFERASE” value [3] was 118.33 u/L. For the same compound, the “BLOOD UREA NITROGEN” value [3] was 12.33 mg/dL, the “CARBON DIOXIDE” value [3] was 20 mmol/L and the CHLORIDE [3] was 100.67 MEQ/L. The CHOLESTEROL [3] was 42.33 mg/dL, the “CREATINE PHOSPHOKINASE” value [3] was 1224.33 u/L and the CREATININE [3] was 0.11 mg/dL. For the same compound, the GLUCOSE [3] was 237.67 mg/dL, the “LACTATE DEHYDROGENASE” value [3] was 410.67 u/L and the LIPASE [3] was 11.67 u/L. It also gave a PHOSPHORUS [3] of 14.63 mg/dL, a POTASSIUM [3] of 6.55 MEQ/L and an SODIUM [3] of 141.9 MEQ/L. For the same compound, the “TOTAL BILIRUBIN” value [3] was 0.13 mg/dL, the “ABSOLUTE BASOPHIL” value [4] was 0 CELLS/uL and the “ABSOLUTE EOSINOPHIL” value [4] was 124.67 CELLS/uL. For the same compound, the “ABSOLUTE LYMPHOCYTE” value [4] was 6857.33 CELLS/uL, the “ABSOLUTE MONOCYTE” value [4] was 225.67 CELLS/uL and the “ABSOLUTE SEGMENTED NEUTROPHIL” value [4] was 959 CELLS/uL. For the same compound, the BASOPHIL [4] was 0%, the EOSINOPHIL [4] was 1.33% and the “ERYTHROCYTE COUNT” value [4] was 5.9 x10E6/uL. The HEMATOCRIT [4] was 37.7%, the HEMOGLOBIN [4] was 14.3 G/DL and the “LEUKOCYTE COUNT” value [4] was 8.17 x10E3/uL. For the same compound, the LYMPHOCYTE [4] was 82.33%, the “MEAN CORPUSCULAR HEMOGLOBIN” value [4] was 24.27 pg and the “MEAN CORPUSCULAR HEMOGLOBIN CONCENTRATION” value [4] was 37.93 G/DL. The “MEAN CORPUSCULAR VOLUME” value [4] was 63.93 fL, the MONOCYTE [4] was 2.67% and the NEUTROPHIL [4] was 13.67%. The “NUCLEATED RED BLOOD CELLS” value [4] was 0 /100WBC, the “PLATELET COUNT” value [4] was 1097 x10E3/uL and the “ALANINE AMINOTRANSFERASE” value [4] was 52.33 u/L. For the same compound, the “ALKALINE PHOSPHATASE” value [4] was 510 u/L, the “ASPARTATE AMINOTRANSFERASE” value [4] was 80.33 u/L and the “BLOOD UREA NITROGEN” value [4] was 10 mg/dL. The “CARBON DIOXIDE” value [4] was 24 mmol/L, the CHLORIDE [4] was 102.33 MEQ/L and the CHOLESTEROL [4] was 38 mg/dL. For the same compound, the “CREATINE PHOSPHOKINASE” value [4] was 556.67 u/L, the CREATININE [4] was 0.1 mg/dL and the GLUCOSE [4] was 165.67 mg/dL. For the same compound, the “LACTATE DEHYDROGENASE” value [4] was 131.67 u/L, the LIPASE [4] was 6.67 u/L and the PHOSPHORUS [4] was 12.1 mg/dL. For the same compound, the POTASSIUM [4] was 6.83 MEQ/L, the SODIUM [4] was 142.1 MEQ/L and the “TOTAL BILIRUBIN” value [4] was 0.2 mg/dL. The “ABSOLUTE BASOPHIL” value [5] was 0 CELLS/uL, the “ABSOLUTE EOSINOPHIL” value [5] was 0 CELLS/uL and the BASOPHIL [5] was 0%. For the same compound, the EOSINOPHIL [5] was 0%, the “NUCLEATED RED BLOOD CELLS” value [5] was 0 /100WBC and the CREATININE [5] was 0.19 mg/dL. The “TOTAL BILIRUBIN” value [5] was 0.13 mg/dL, the “ABSOLUTE BASOPHIL” value [6] was 0 CELLS/uL and the “ABSOLUTE EOSINOPHIL” value [6] was 68 CELLS/uL. For the same compound, the “ABSOLUTE LYMPHOCYTE” value [6] was 3442 CELLS/uL, the “ABSOLUTE MONOCYTE” value [6] was 42 CELLS/uL and the “ABSOLUTE SEGMENTED NEUTROPHIL” value [6] was 1648 CELLS/uL. For the same compound, the BASOPHIL [6] was 0%, the EOSINOPHIL [6] was 1% and the “ERYTHROCYTE COUNT” value [6] was 7.17 x10E6/uL. For the same compound, the HEMATOCRIT [6] was 43.93%, the HEMOGLOBIN [6] was 17.27 G/DL and the “LEUKOCYTE COUNT” value [6] was 5.2 x10E3/uL. The LYMPHOCYTE [6] was 69%, the “MEAN CORPUSCULAR HEMOGLOBIN” value [6] was 24.07 pg and the “MEAN CORPUSCULAR HEMOGLOBIN CONCENTRATION” value [6] was 39.3 G/DL. For the same compound, the “MEAN CORPUSCULAR VOLUME” value [6] was 61.23 fL, the MONOCYTE [6] was 1% and the NEUTROPHIL [6] was 29%. The “NUCLEATED RED BLOOD CELLS” value [6] was 0 /100WBC, the “PLATELET COUNT” value [6] was 1149 x10E3/uL and the “ALANINE AMINOTRANSFERASE” value [6] was 26.33 u/L. The “ALKALINE PHOSPHATASE” value [6] was 163 u/L, the “ASPARTATE AMINOTRANSFERASE” value [6] was 107 u/L and the “BLOOD UREA NITROGEN” value [6] was 23 mg/dL. The “CARBON DIOXIDE” value [6] was 18.67 mmol/L, the CHLORIDE [6] was 94.5 MEQ/L and the CHOLESTEROL [6] was 36 mg/dL. For the same compound, the “CREATINE PHOSPHOKINASE” value [6] was 1782.67 u/L, the CREATININE [6] was 0.13 mg/dL and the GLUCOSE [6] was 207.67 mg/dL. The “LACTATE DEHYDROGENASE” value [6] was 368.67 u/L, the LIPASE [6] was 37 u/L and the PHOSPHORUS [6] was 11.03 mg/dL. For the same compound, the POTASSIUM [6] was 5.79 MEQ/L, the SODIUM [6] was 137 MEQ/L and the “TOTAL BILIRUBIN” value [6] was 0.2 mg/dL.
